System: acetic acid-induced writhings in mice
Conditions: mouse, in vivo, ip
Protocol: The analgesic activity has been tested by means of the writhing test. As the painful agent, an aqueous solution of acetic acid at 3% was used, injected by intraperitoneal way (0.1 ml/10 g), and the number was recorded of animal' writhings during the observation time of 20 minutes.
Twenty female mice of Albino Swiss strain, weighing 25-28 g, were treated with the compound under test, dissolved in physiologic solution:dimethylsulphoxide (1:1), at the dosage of 0.1 ml/kg/i.p. Other 20 mice, of same strain, sex and weight, were treated with the solvent only. After 40 minutes, the acetic acid was administered to both groups, and the increase of writhings was recorded.

CC(C)C[C@@H](NC(=O)C(Cc1c[nH]c2ccccc12)C(=O)O)NC(=O)[C@@H]1CCC(=O)N1 (stereo partly drawn) [GLP-g-Leu-m-TRP-OH, N-(pyroglutamyl)-N'-[(R,S)-alpha-carboxy-beta-3-indolyl-propanoyl]-(S)-1,1-diamino-isopentane]
inhibition of the number of contorsions (writhings): 25%
